Test [1] deals with PC-3, DU-145, LNCaP, T47D, MB-MDA-468 and OVCAR-3 cells. Nature of the test: Anoikis of additional malignant cell lines: colony formation after suspension culture. The class given is cell-based. The protocol: (§1) FIG. 14. Tumor cell sensitivity to anoikis correlates with sensitivity to Fas-mediated apoptosis. PC-3, DU-145, and LNCaP prostate, T47D and MB-MDA-468 breast, and OVCAR-3 ovarian cancer cells were cultured under adherent conditions with increasing concentrations of 5809354, in the presence or absence of Fas-activating antibody (CH-11, 100 ng/mL). Thirty hours after incubation, cell viability was determined using the MTS assay. Cell lines were also cultured under suspension conditions in the presence or absence of 5809354. Thirty hours after incubation, equal volumes of suspension-cultured cells were replated in a colony formation assay. Data represents the mean±SEM percent of viable cells or colonies compared to untreated controls.
(§2) Cell viability apoptosis, colony formation, and caspase activation assays. Cell viability was assessed using the MTS reduction assay (Promega, Madison, Wis., USA) according to the manufacturer's protocols and as described in Schimmer et al. (2006). Apoptosis was measured by flow cytometry to detect cell surface annexin V expression and propidium iodide (PI) uptake (Biovision, Mountain View, Calif., USA) as described in Carter et al. (2005). […] Clonogenic growth after suspension culture was measured using colony formation assays. […] Colonies were fixed, stained with methylene blue, and counted. […]

Test [2] has the same test system. Description: MTS viability of additional malignant cell lines under adherent conditions with or without CH-11. The class given is cell-based. How it is done: as §1, §2
In a further test the test system is dsRed-PPC-1 cells. Description: In vivo survival and growth of pre-treated dsRed-PPC-1 cells injected into SCID mice. The protocol:
FIG. 16. Decreases in cellular FLIP levels by siRNA diminishes the in vivo survival and growth of circulating prostate cancer cells. (A) Fluorescent dsRed-PPC-1 cells were transfected in culture with anti-FLIP siRNA (siFLIP, 25 nM) or control siRNA (siCtrl, 25 nM). Eight hours after transfection cells were harvested and 3.5×10^6 viable cells were injected into the tail veins of sublethally irradiated SCID mice. Five weeks after injection, or when mice became moribund, mice were sacrificed and their organs imaged using a fluorescent microscope (n=9). Representative images of tumor formation in the lung, bone, and liver are shown. (B) The total number and area of distant tumors from mice described above were quantified using image analysis software. Tumors were quantified from all five lobes of the lungs. Data points represent measurements from each mouse. Differences in the number and area of tumors are significant by the rank sum test. The bar represents the median of the population. Measurements were completed on unaltered images.
FIG. 17. Decreases in cellular FLIP levels by 5809354 diminishes the in vivo survival and growth of circulating prostate cancer cells. (A) Fluorescent dsRed-PPC-1 cells were treated in culture with 5809354 (30 μM) or buffer control. Sixteen hours after treatment cells were harvested and 3.5×10^6 viable cells were injected into the tail veins of sublethally irradiated SCID mice. Five weeks after injection, or when mice became moribund, mice were sacrificed and their organs imaged using a fluorescent microscope (n=8). Representative images of tumor formation in the lung, bone, and liver are shown. (B) The number and area of distant tumors from mice described above were quantified using image analysis software. Tumors were quantified from all five lobes of the lungs. Data points represent measurements from each mouse. Differences in the number and area of tumors are significant by the rank sum test. […]
In vivo studies. […] 3.5×10^6 viable cells (as measured by trypan blue exclusion assay) were either injected via the tail vein or subcutaneously into the hind limbs into sublethally irradiated (3.5 Gy) SCID mice (10 mice per treatment). […] Red fluorescent tumors were detected via whole body imaging and whole organ imaging using a Leica MZ FLIII fluorescent stereomicroscope with a 100 W mercury lamp, a 560/40 excitation filter, and a 610 long-pass emission filter. Images were acquired using a Leica DC350 digital camera at 0.8× magnification and analyzed using Image Pro Plus 6.0 (MediaCybernetics). A single common threshold was applied to identify and measure fluorescence in each organ (Cairns et al., 2004). The number of fluorescent spots and the corresponding pixel area were recorded for each lung lobe. All quantification was performed on unmanipulated images. […]

With “4-(4-chloro-2-methylphenoxy)-N-hydroxybutanamide [compound 5809354]”, the sensitization to anoikis result in test [1] (LNCaP or MB-MDA-468 cells) is on record as “did not sensitize”; in test [1] (PC-3 and DU-145 prostate, T47D breast and OVCAR-3 ovarian cancer cell lines), “sensitized”. Besides, in test [2] (LNCaP or MB-MDA-468 cells), the “sensitization to CH-11” value is recorded as “did not sensitize”. The “sensitization to CH-11-induced apoptosis” value in test [2] (PC-3, DU-145, T47D and OVCAR-3 cell lines, CH-11 100 ng/mL) was “sensitized”. For the same substance, the Median survival in the test on dsRed-PPC-1 cells (cells treated in culture (5809354 30 μM 16 hours; FLIP siRNA 25 nM 8 hours), injected into tail veins of sublethally irradiated SCID mice) is 32 days. Besides, the “tumor formation in lung, bone, and liver” value in the test with dsRed-PPC-1 cells (intravenous injection of treated cells, five weeks or when moribund) is recorded as “decreased tumor formation”. For the same substance, the “median tumor number and median total tumor area within the lung” value in the test on dsRed-PPC-1 cells (intravenous injection of treated cells, image-based analysis) is recorded as “decreased”. Moreover, the “tumor weight after subcutaneous injection” value in the test on dsRed-PPC-1 cells (subcutaneous injection of treated cells, 3 weeks (data not shown)) is recorded as “no difference”.

The values above are taken from patent US8008354B2, “Death receptor sensitizing compounds and methods of use therefor” (Burnham Institute for Medical Research, priority 2006, dated 2011).
